Earlier results on three compounds are cited in patent US10976308B2, “Plant-derived nanofibrillar cellulose hydrogel for cell culture and chemical testing” (UPM-KYMMENE CORPORATION, priority 2014, dated 2021).

The conditions of data set [1]: by Khetani et al. 2013.
Data set [2] concerns 3D liver models. The settings on record: by Khetani et al. 2013.

The term Cmax denotes the peak of the concentration-time curve. With `O=C(O)Cc1ccccc1Nc1c(Cl)cccc1Cl` [diclofenac], the highest concentration (Cmax) in data set [1] was 8 µM. For the compound `CN(C)CCCN1c2ccccc2CCc2ccccc21` [imipramine], the “Toxicity in 3D liver models” value in data set [2] is recorded as “toxicity is not detected in all 3D models tested”.

Turning to `CC(C)NCC(O)COc1cccc2ccccc12` (stereo not shown) [propranolol], the “Toxicity in 3D liver models” value in data set [2] is listed as “not detected in the 3D liver models”. Moreover, the Cmax in data set [1] was 0.2 µM.
